Measured values taken from ChEMBL document CHEMBL1147916, “2-(2-(2-Ethoxybenzoylamino)-4-chlorophenoxy)-N-(2-ethoxybenzoyl)benzamine inhibits EAT cell induced angiogenesis by down regulation of VEGF secretion” (2007).
Activity calls are given as the source filed them.

Assays:
[1] = Antiangiogenic activity against swiss albino mouse EAT cells assessed as decrease in body weight at 100 mg/kg after 6 days; assay type: functional; parameters: scale not given: the % may be the effect or the level left
[2] = tested on: EAT; experiment: Antiangiogenic activity against EAT cells bearing Swiss Albino mouse assessed as ascites volume at 100 mg/kg after 12 days; assay type: functional, organism-based; parameters: dose 100 mg/kg
[3] = tested on: EAT; experiment: Antiangiogenic activity against EAT cells bearing Swiss Albino mouse assessed as cell number at 100 mg/kg after 12 days by trypan blue dye exclusion method; assay type: functional, organism-based; parameters: dose 100 mg/kg
[4] = tested on: EAT; experiment: Inhibition of VEGF secretion in EAT cells bearing Swiss Albino mouse at 100 mg/kg after 6 days by VEGF ELISA; assay type: functional, organism-based; parameters: dose 100 mg/kg
[5] = tested on: EAT; experiment: Antiangiogenic activity against EAT cells bearing Swiss Albino mouse assessed as microvasculature at 100 mg/kg after 6 days by peritoneal angiogenesis assay; assay type: functional, organism-based; parameters: dose 100 mg/kg
[6] = tested on: EAT; experiment: Antiangiogenic activity against EAT cells bearing Swiss Albino mouse by CAM assay; assay type: functional

Measured: Activity

CCOc1ccccc1C(=O)Nc1ccccc1Oc1ccc(Cl)cc1NC(=O)c1ccccc1OCC
active: [2] | [3] | [4] | [5] | [6]
65%: [1]
